Laboratory results taken from patent US11696913B2, “Prolonged ectoparasite-controlling agent for animal” (MITSUI CHEMICALS AGRO, INC., priority 2017, dated 2023).

Key:
Plutella xylostella = assay: Insecticidal testing against diamondback moth; assay type: in vivo; conditions: foliar, 144 h, concentration 100 ppm, cabbage leaf dip, third-stage larvae, after 6 days, read-out: pesticidal rate
Text: Insecticidal Testing Against Diamondback Moth (Plutella xylostella)

Ctenocephalides felis [1] = assay: In vitro contact test with fleas; conditions: read-out: insecticidal activity; for pest or weed control at 0.2 µg/cm2, 0.2 µg/cm2: dose 0.2 μg/cm^2, dead or moribund fleas after 48 h; for pest or weed control at 1 µg/cm2, 1 µg/cm2: dose 1 μg/cm^2, dead or moribund fleas after 48 h; for pest or weed control at 0.04 µg/cm2, 0.04 µg/cm2: dose 0.04 μg/cm^2, dead or moribund fleas after 48 h
Summary of the method: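 Adult male and female cat fleas (5-10 per tube) placed in glass tubes coated with compound from acetone solution (900 ppm gives 5 μg/cm^2), kept at room temperature and ambient humidity. After 48 h, motionless or uncoordinated fleas scored dead or moribund; activity expressed as % dead or moribund.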

Spodoptera litura = assay: Insecticidal testing against common cutworm; assay type: in vivo; conditions: foliar, 144 h, concentration 100 ppm, cabbage leaf dip, second-stage larvae, after 6 days, read-out: pesticidal rate
Text: Insecticidal Testing Against Common Cutworm (Spodoptera litura)

Ixodes ricinus = assay: In vitro contact test with adult hard ticks (Ixodes ricinus); conditions: read-out: acaricidal activity; for pest or weed control at 1 µg/cm2, 1 µg/cm2: dose 1 μg/cm^2, 48 h; for pest or weed control at 5 µg/cm2, 5 µg/cm2: dose 5 μg/cm^2, 48 h; for pest or weed control at 0.2 µg/cm2, 0.2 µg/cm2: dose 0.2 μg/cm^2, 48 h
Summary of the method: (§1)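 Adult R. sanguineus, I. ricinus, D. variabilis or A. americanum nymphs exposed in glass vials coated with compound from acetone (900 ppm gives 5 μg/cm^2). Held 48 h at room temperature (R. sanguineus) or 21° C., 85% rel. hum.; then heated at 45-50° C. ≤5 min, motionless or uncoordinated ticks scored dead/moribund.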

Ctenocephalides felis [2] = assay: Ctenocephalides felis in-vitro feeding test with fleas (CTECFE oral); conditions: 48 hours, read-out: insecticidal feeding activity; for pest or weed control at 0.16 ppm: dose 0.16 ppm in citrated cattle blood; for pest or weed control at 0.8 ppm: dose 0.8 ppm in citrated cattle blood; for pest or weed control at 4 ppm: dose 4 ppm in citrated cattle blood
Summary of the method: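 About 20 unfed adult cat fleas fed through parafilm on citrated cattle blood containing test substance (DMSO solution diluted in blood), held at about 37° C. Kill rate scored after 48 hours, 100% meaning all fleas dead.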

Rhipicephalus sanguineus = assay: In vitro contact test with adult hard ticks (Rhipicephalus sanguineus); conditions: read-out: acaricidal activity; for pest or weed control at 0.2 µg/cm2, 0.2 µg/cm2: dose 0.2 μg/cm^2, 48 h; for pest or weed control at 1 µg/cm2, 1 µg/cm2: dose 1 μg/cm^2, 48 h; for pest or weed control at 0.04 µg/cm2, 0.04 µg/cm2: dose 0.04 μg/cm^2, 48 h
Summary of the method: as §1

Amblyomma americanum = assay: In vitro contact test with hard ticks (Amblyomma americanum nymphs); conditions: read-out: acaricidal activity; for pest or weed control at 0.2 µg/cm2, 0.2 µg/cm2: dose 0.2 μg/cm^2, 48 h; for pest or weed control at 1 µg/cm2, 1 µg/cm2: dose 1 μg/cm^2, 48 h
Summary of the method: as §1

[3] = tested on: Rhipicephalus (Boophilus) microplus; assay: In vitro injection test with Rhipicephalus (Boophilus) microplus (BOOPMI Inj); conditions: 168 h, laid fertile eggs after 7 days, read-out: acaricidal activity; for pest or weed control at 32 ng: dose 0.032 μg/animal injected; for pest or weed control at 0.00016 mg: dose 0.16 μg/animal injected; for pest or weed control at 0.0008 mg: dose 0.8 μg/animal injected; for pest or weed control at 6.4 ng: dose 0.0064 μg/animal injected
Summary of the method: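 Test substance in DMSO; 1 μl injected into abdomen of each of 5 engorged adult female ticks, then held at 28° C., 85% rel. hum. Activity scored after 7 days from laying of fertile eggs: 100% = no eggs or all infertile, 0% = all eggs fertile.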

Laodelphax striatellus = assay: Insecticidal testing against small brown planthopper; assay type: in vivo; conditions: 144 h, concentration 100 ppm, sprayed rice seedlings, after 6 days, read-out: pesticidal rate
Summary of the method: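 Acetone solution of compound at a set concentration sprayed onto rice seedlings, air-dried, then exposed to 10 planthoppers (one group). Held at 25° C; survival rate recorded after 6 days.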

Dermacentor variabilis = assay: In vitro contact test with adult hard ticks (Dermacentor variabilis); conditions: read-out: acaricidal activity; for pest or weed control at 0.2 µg/cm2, 0.2 µg/cm2: dose 0.2 μg/cm^2, 48 h; for pest or weed control at 1 µg/cm2, 1 µg/cm2: dose 1 μg/cm^2, 48 h; for pest or weed control at 0.04 µg/cm2, 0.04 µg/cm2: dose 0.04 μg/cm^2, 48 h
Summary of the method: as §1

SMILES	pest or weed control at 100 ppm (Plutella xylostella)	pest or weed control at 0.2 µg/cm2, 0.2 µg/cm2 (Ctenocephalides felis [1])	pest or weed control at 1 µg/cm2, 1 µg/cm2 (Ctenocephalides felis [1])	pest or weed control at 100 ppm (Spodoptera litura)	pest or weed control at 1 µg/cm2, 1 µg/cm2 (Ixodes ricinus)	pest or weed control at 5 µg/cm2, 5 µg/cm2 (Ixodes ricinus)	pest or weed control at 0.16 ppm (Ctenocephalides felis [2])	pest or weed control at 0.8 ppm (Ctenocephalides felis [2])	pest or weed control at 4 ppm (Ctenocephalides felis [2])	pest or weed control at 0.2 µg/cm2, 0.2 µg/cm2 (Rhipicephalus sanguineus)	pest or weed control at 1 µg/cm2, 1 µg/cm2 (Rhipicephalus sanguineus)	pest or weed control at 0.2 µg/cm2, 0.2 µg/cm2 (Amblyomma americanum)	pest or weed control at 1 µg/cm2, 1 µg/cm2 (Amblyomma americanum)	pest or weed control at 32 ng [3]	pest or weed control at 0.00016 mg [3]	pest or weed control at 0.0008 mg [3]	pest or weed control at 100 ppm (Laodelphax striatellus)	pest or weed control at 0.2 µg/cm2, 0.2 µg/cm2 (Dermacentor variabilis)	pest or weed control at 1 µg/cm2, 1 µg/cm2 (Dermacentor variabilis)	pest or weed control at 0.04 µg/cm2, 0.04 µg/cm2 (Dermacentor variabilis)	also measured
O=C(Nc1cccc(C(=O)Nc2c(I)cc(C(F)(C(F)(F)F)C(F)(F)F)cc2S(=O)(=O)C(F)(F)F)c1F)c1ccc(F)cc1 [Compound 64]	≥ 70%	95%	95%	≥ 70%	90%	90%	95%	95%	95%	90%	90%	90%	90%	100%	100%	100%	≥ 70%	90%	90%		
O=C(Nc1cccc(C(=O)Nc2c(Br)cc(C(F)(C(F)(F)F)C(F)(F)F)cc2OC(F)(F)F)c1F)c1ccc(F)cc1 [Compound 71]	≥ 70%	95%	95%	≥ 70%	90%	90%		95%	95%	90%	90%	90%	90%	100%	100%	100%	≥ 70%	90%	90%		pest or weed control at 0.2 µg/cm2, 0.2 µg/cm2 (Ixodes ricinus): 90%; pest or weed control at 0.04 µg/cm2, 0.04 µg/cm2 (Rhipicephalus sanguineus): 90%
O=C(Nc1cccc(C(=O)Nc2c(I)cc(C(F)(C(F)(F)F)C(F)(F)F)cc2OC(F)(F)F)c1F)c1ccc(F)cc1 [Compound 73]	≥ 70%	95%	95%	≥ 70%	90%	90%	95%	95%	95%	90%	90%	90%	90%	100%	100%	100%	≥ 70%	90%	90%	90%	pest or weed control at 0.04 µg/cm2, 0.04 µg/cm2 (Ctenocephalides felis [1]): 95%; pest or weed control at 0.2 µg/cm2, 0.2 µg/cm2 (Ixodes ricinus): 90%; pest or weed control at 0.04 µg/cm2, 0.04 µg/cm2 (Rhipicephalus sanguineus): 90%
O=C(Nc1cccc(C(=O)Nc2c(I)cc(C(F)(C(F)(F)F)C(F)(F)C(F)(F)F)cc2C(F)(F)F)c1F)c1ccc(F)c(F)c1 (stereo not drawn) [Compound 78]	≥ 70%	95%	95%	≥ 70%	90%	90%	95%	95%	95%	90%	90%	90%	90%	100%	100%	100%	≥ 70%	90%	90%	90%	pest or weed control at 0.2 µg/cm2, 0.2 µg/cm2 (Ixodes ricinus): 90%
N#Cc1ccc(C(=O)Nc2cccc(C(=O)Nc3c(I)cc(C(F)(C(F)(F)F)C(F)(F)F)cc3C(F)(F)F)c2F)cn1 [Compound 79]	≥ 70%	95%	95%	≥ 70%	90%	90%	95%	95%	95%	90%	90%	90%	90%	100%	100%	100%	≥ 70%		90%		
CN(C(=O)c1ccc(F)nc1)c1cccc(C(=O)Nc2c(I)cc(C(F)(C(F)(F)F)C(F)(F)C(F)(F)F)cc2C(F)(F)F)c1F (stereo not drawn) [Compound 81]	≥ 70%	95%	95%	≥ 70%		90%	95%	95%	95%	90%	90%	90%	90%	100%	100%	100%	≥ 70%	90%	90%	90%	pest or weed control at 0.04 µg/cm2, 0.04 µg/cm2 (Ctenocephalides felis [1]): 95%; pest or weed control at 6.4 ng [3]: 100%
O=C(Nc1cccc(C(=O)Nc2c(I)cc(C(F)(C(F)(F)F)C(F)(F)C(F)(F)F)cc2C(F)(F)F)c1F)c1ccc(F)nc1 (stereo not drawn) [Compound 82]	≥ 70%	95%	95%	≥ 70%		90%	95%	95%	95%	90%	90%	90%	90%	100%	100%	100%	≥ 70%	90%	90%	90%	pest or weed control at 0.04 µg/cm2, 0.04 µg/cm2 (Ctenocephalides felis [1]): 95%; pest or weed control at 0.04 µg/cm2, 0.04 µg/cm2 (Rhipicephalus sanguineus): 90%; pest or weed control at 6.4 ng [3]: 100%
O=C(Nc1cccc(C(=O)Nc2c(I)cc(C(F)(C(F)(F)F)C(F)(F)F)cc2C(F)(F)F)c1F)c1ccc(C(F)F)nc1 [Compound 85]	≥ 70%	95%	95%	≥ 70%	90%	90%	95%	95%	95%	90%	90%	90%	90%	100%	100%	100%	≥ 70%	90%	90%	90%	pest or weed control at 0.04 µg/cm2, 0.04 µg/cm2 (Ctenocephalides felis [1]): 95%; pest or weed control at 0.2 µg/cm2, 0.2 µg/cm2 (Ixodes ricinus): 90%; pest or weed control at 0.0064 ppm (Ctenocephalides felis [2]; dose 0.0064 ppm in citrated cattle blood): 95%; pest or weed control at 0.032 ppm (Ctenocephalides felis [2]; dose 0.032 ppm in citrated cattle blood): 95%
